ChEMBL document CHEMBL3822455, “Aryl or heteroaryl substituted aminal derivatives of HCV NS5A inhibitor MK-8742” (Bioorg Med Chem Lett, 2016)

Legend:
Format in all cases: functional, organism-based, Hepacivirus hominis
[1] = test system: Hepatitis C virus; assay: Antiviral activity against HCV genotype 1a assessed as replicon RNA level measured after 3 days by real-time PCR method; settings: subtype 1a, 72 h
[2] = test system: Hepatitis C virus; assay: Antiviral activity against HCV genotype 1b assessed as replicon RNA level measured after 3 days by real-time PCR method; settings: 72 h
[3] = test system: Hepatitis C virus; assay: Antiviral activity against HCV genotype 2b assessed as replicon RNA level measured after 3 days by real-time PCR method; settings: 72 h
[4] = test system: Hepatitis C virus; assay: Antiviral activity against HCV genotype 1a harboring NS5A Y93H mutant assessed as replicon RNA level measured after 3 days by real-time PCR method; settings: subtype 1a, 72 h
[5] = test system: Hepatitis C virus; assay: Antiviral activity against HCV genotype 1a harboring NS5A L31V mutant assessed as replicon RNA level measured after 3 days by real-time PCR method; settings: subtype 1a, 72 h
[6] = test system: Hepatitis C virus; assay: Antiviral activity against HCV genotype 2a assessed as replicon RNA level measured after 3 days by real-time PCR method; settings: 72 h
[7] = test system: Hepatitis C virus; assay: Antiviral activity against HCV genotype 3a assessed as replicon RNA level measured after 3 days by real-time PCR method; settings: 72 h
[8] = test system: Hepatitis C virus; assay: Antiviral activity against HCV genotype 4a assessed as replicon RNA level measured after 3 days by real-time PCR method; settings: 72 h

Structure (SMILES): COC(=O)N[C@H](C(=O)N1CCC[C@H]1c1ncc(-c2ccc3c(c2)OC(c2cc(F)ccc2OC)n2c-3cc3cc(-c4cnc([C@@H]5CCCN5C(=O)[C@@H](NC(=O)OC)C(C)C)[nH]4)ccc32)[nH]1)C(C)C (some centres not stated)
- EC50 [1]: 0.02 nM
- EC50 [2]: 0.01 nM
- EC50 [3]: 1 nM
- EC50 [4]: 48 nM
- EC50 [5]: 1 nM

Structure (SMILES): COC(=O)N[C@H](C(=O)N1CCC[C@H]1c1ncc(-c2ccc3c(c2)OC(c2cccc(O)c2)n2c-3cc3cc(-c4cnc([C@@H]5CCCN5C(=O)[C@@H](NC(=O)OC)C(C)C)[nH]4)ccc32)[nH]1)C(C)C (mixture of isomers)
- EC50 [1]: 0.02 nM
- EC50 [6]: 0.03 nM
- EC50 [3]: 3 nM
- EC50 [7]: 0.02 nM
- EC50 [8]: 0.02 nM
- EC50 [4]: 0.8 nM

Structure (SMILES): COC(=O)N[C@H](C(=O)N1CCC[C@H]1c1ncc(-c2ccc3c(c2)OC(c2cccc(OC(C)C)c2)n2c-3cc3cc(-c4cnc([C@@H]5CCCN5C(=O)[C@@H](NC(=O)OC)C(C)C)[nH]4)ccc32)[nH]1)C(C)C (mixture of isomers)
- EC50 [1]: 0.007 nM
- EC50 [3]: 28 nM
- EC50 [7]: 0.08 nM
- EC50 [4]: 4.4 nM
- EC50 [5]: 0.1 nM

Structure (SMILES): COC(=O)N[C@H](C(=O)N1CCC[C@H]1c1ncc(-c2ccc3c(c2)OC(c2cccc(OC4CCCC4)c2)n2c-3cc3cc(-c4cnc([C@@H]5CCCN5C(=O)[C@@H](NC(=O)OC)C(C)C)[nH]4)ccc32)[nH]1)C(C)C (mixture of isomers)
- EC50 [1]: 0.01 nM
- EC50 [2]: 0.006 nM
- EC50 [3]: 6 nM
- EC50 [7]: 0.03 nM
- EC50 [4]: 4 nM
- EC50 [5]: 0.2 nM

Structure (SMILES): COC(=O)N[C@H](C(=O)N1CCC[C@H]1c1ncc(-c2ccc3c(c2)OC(c2cc(F)cc(OC)c2)n2c-3cc3cc(-c4cnc([C@@H]5CCCN5C(=O)[C@@H](NC(=O)OC)C(C)C)[nH]4)ccc32)[nH]1)C(C)C (mixture of isomers)
- EC50 [1]: 0.006 nM
- EC50 [2]: 0.007 nM
- EC50 [3]: 0.1 nM
- EC50 [4]: 2.3 nM
- EC50 [5]: 0.1 nM

Structure (SMILES): COC(=O)N[C@H](C(=O)N1CCC[C@H]1c1ncc(-c2ccc3c(c2)OC(c2cccc(C#N)c2)n2c-3cc3cc(-c4cnc([C@@H]5CCCN5C(=O)[C@@H](NC(=O)OC)C(C)C)[nH]4)ccc32)[nH]1)C(C)C (mixture of isomers)
- EC50 [1]: < 2 nM
- EC50 [2]: < 0.2 nM
- EC50 [6]: < 2 nM
- EC50 [3]: < 2 nM
- EC50 [7]: < 2 nM
- EC50 [8]: < 2 nM
- EC50 [4]: 4 nM

Structure (SMILES): COC(=O)N[C@H](C(=O)N1CCC[C@H]1c1ncc(-c2ccc3c(c2)OC(c2cccc(-c4ccncc4)c2)n2c-3cc3cc(-c4cnc([C@@H]5CCCN5C(=O)[C@@H](NC(=O)OC)C(C)C)[nH]4)ccc32)[nH]1)C(C)C (mixture of isomers)
- EC50 [1]: 0.007 nM
- EC50 [6]: 0.007 nM
- EC50 [3]: 10 nM
- EC50 [7]: 0.08 nM
- EC50 [4]: 40 nM
- EC50 [5]: 10 nM

Structure (SMILES): CCCOc1cccc(C2Oc3cc(-c4cnc([C@@H]5CCCN5C(=O)[C@@H](NC(=O)OC)C(C)C)[nH]4)ccc3-c3cc4cc(-c5cnc([C@@H]6CCCN6C(=O)[C@@H](NC(=O)OC)C(C)C)[nH]5)ccc4n32)c1 (some centres not stated)
- EC50 [1]: 0.01 nM
- EC50 [3]: 2 nM
- EC50 [7]: 0.08 nM
- EC50 [4]: 2.6 nM
- EC50 [5]: 0.3 nM

Structure (SMILES): COC(=O)N[C@H](C(=O)N1CCC[C@H]1c1ncc(-c2ccc3c(c2)OC(c2cccc(C)c2)n2c-3cc3cc(-c4cnc([C@@H]5CCCN5C(=O)[C@@H](NC(=O)OC)C(C)C)[nH]4)ccc32)[nH]1)C(C)C (mixture of isomers)
- EC50 [3]: 2 nM
- EC50 [4]: 12 nM
- EC50 [5]: 0.52 nM

Structure (SMILES): COC(=O)N[C@H](C(=O)N1CCC[C@H]1c1ncc(-c2ccc3c(c2)OC(c2ccc(C(F)(F)F)cc2)n2c-3cc3cc(-c4cnc([C@@H]5CCCN5C(=O)[C@@H](NC(=O)OC)C(C)C)[nH]4)ccc32)[nH]1)C(C)C (mixture of isomers)
- EC50 [1]: 0.016 nM
- EC50 [2]: 0.009 nM
- EC50 [6]: 0.027 nM
- EC50 [7]: 0.27 nM
- EC50 [8]: 0.04 nM
- EC50 [4]: 46 nM

Structure (SMILES): COC(=O)N[C@H](C(=O)N1CCC[C@H]1c1ncc(-c2ccc3c(c2)OC(c2cncnc2)n2c-3cc3cc(-c4cnc([C@@H]5CCCN5C(=O)[C@@H](NC(=O)OC)C(C)C)[nH]4)ccc32)[nH]1)C(C)C (mixture of isomers)
- EC50 [1]: 0.004 nM
- EC50 [6]: 0.02 nM
- EC50 [3]: 10 nM
- EC50 [7]: 0.2 nM
- EC50 [4]: 12 nM
- EC50 [5]: 10 nM

Structure (SMILES): COC(=O)N[C@H](C(=O)N1CCC[C@H]1c1ncc(-c2ccc3c(c2)OC(c2ccncc2)n2c-3cc3cc(-c4cnc([C@@H]5CCCN5C(=O)[C@@H](NC(=O)OC)C(C)C)[nH]4)ccc32)[nH]1)C(C)C (mixture of isomers)
- EC50 [1]: 0.01 nM
- EC50 [2]: 0.01 nM
- EC50 [6]: 0.02 nM
- EC50 [7]: 0.8 nM
- EC50 [8]: 0.2 nM
- EC50 [4]: 146 nM
- EC50 [5]: 0.6 nM
